The results in this text go back to ChEMBL document CHEMBL1157489, “Identification of novel non-peptide CXCR4 antagonists by ligand-based design approach” (Bioorg Med Chem Lett, 2008).

Usually IC50 stands for the concentration that gives 50% inhibition. Low readings indicate greater potency, high ones weaker potency. For orientation: EC50 means the concentration that produces a half-maximal response.

T1 sequence (P61073 whole entry): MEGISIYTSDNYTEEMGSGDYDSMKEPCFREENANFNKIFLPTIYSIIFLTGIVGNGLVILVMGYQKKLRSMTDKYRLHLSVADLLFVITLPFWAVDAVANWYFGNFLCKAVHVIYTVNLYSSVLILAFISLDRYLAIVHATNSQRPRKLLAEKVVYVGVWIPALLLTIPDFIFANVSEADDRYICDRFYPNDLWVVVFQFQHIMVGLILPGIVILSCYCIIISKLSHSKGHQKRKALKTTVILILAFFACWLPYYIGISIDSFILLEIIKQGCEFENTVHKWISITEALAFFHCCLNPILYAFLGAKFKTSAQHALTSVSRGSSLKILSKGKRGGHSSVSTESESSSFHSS

One assay addresses T1, C-X-C chemokine receptor type 4 (Homo sapiens, UniProt P61073). Description: Displacement of [125I]SDF1 from human CXCR4 expressed in CHO cells at 10 uM. The assay is classed as cell-based.
Settings: not given
Regarding `N=C(N)NCCCn1c(C(=O)Nc2cccc3ccccc23)cc2cc(NC(=O)Cc3ccc(O)cc3)ccc21`, the Activity worked out at 62%.

`CC(C)CC(NC(=N)N)C(=O)Nc1ccc2c(c1)cc(C(=O)NCCc1c[nH]c3ccccc13)n2CCCNC(=N)N` (racemic) registered an Activity of 77%.

For the molecule `N=C(N)NCCCn1c(C(=O)Nc2cccc3ccccc23)cc2cc(NC(=O)CCc3ccc(O)cc3)ccc21`, the Activity was determined as 55%.

Consider `N=C(N)NCCc1cc2cc(NC(=O)CCc3ccc(O)cc3)ccc2n1CCc1ccc2ccccc2c1`, for which the Activity was 53%.

Molecule `N=C(N)NCCCn1c(C(=O)NCCc2c[nH]c3ccccc23)cc2cc(NC(=O)CNC(=N)N)ccc21` displayed an Activity of 88%.

Molecule `N=C(N)NCCCn1c(C(=O)NCCc2ccc(O)cc2)cc2cc(NC(=O)CNC(=N)N)ccc21` gave an Activity of 23%.

`N=C(N)NCCCn1c(C(=O)NCCc2ccc3ccccc3c2)cc2cc(NC(=O)CNC(=N)N)ccc21` had an Activity of 63%.

For `N=C(N)NCCCn1c(C(=O)NCCc2c[nH]c3ccccc23)cc2cc(NC(=O)C3CCN(C(=N)N)CC3)ccc21`, the Activity came to 86%.

For the molecule `N=C(N)NCCCn1c(C(=O)NCCc2cccc3ccccc23)cc2cc(NC(=O)CNC(=N)N)ccc21`, the Activity was found to be 61%.

With `N=C(N)NCCCn1c(C(=O)NCCc2c[nH]c3ccccc23)cc2cc(NC(=O)CCNC(=N)N)ccc21`, the Activity was 70%.

The molecule `N=C(N)NCCCn1c(C(=O)NCCc2c[nH]c3ccccc23)cc2cc(NC(=O)C(Cc3ccccc3)NC(=N)N)ccc21` (racemic) came in with an Activity of 72%.

The next assay has as its target T1, C-X-C chemokine receptor type 4. Description: Displacement of [125I]SDF1 from human CXCR4 expressed in CHO cells. The assay is classed as cell-based.
Settings: not given
A general note: In a radioligand displacement assay an active substance lowers the binding of a labelled ligand.
`N=C(N)NCCCn1c(C(=O)NCCc2c[nH]c3ccccc23)cc2cc(NC(=O)[C@H](Cc3ccccc3)NC(=N)N)ccc21` yielded an IC50 of 1.7 µM.

`NC(N)=NCCCn1c(C(=O)Nc2cccc3ccccc23)cc2cc(NC(=O)Cc3ccc(O)cc3)ccc21` came in with a 50% inhibitory concentration (IC50) of 4.8 µM.

As for `N=C(N)NCCCn1c(C(=O)NCCc2c[nH]c3ccccc23)cc2cc(NC(=O)[C@@H](Cc3ccccc3)NC(=N)N)ccc21`, the half-inhibitory concentration (IC50) stood at 3.7 µM.

Turning to `NC(N)=NCCCn1c(C(=O)NCCc2c[nH]c3ccccc23)cc2cc(NC(=O)CN=C(N)N)ccc21`, the half-maximal inhibitory concentration (IC50) came out at 3 µM.

For `NC(N)=NCCc1cc2cc(NC(=O)CCc3ccc(O)cc3)ccc2n1CCc1ccc2ccccc2c1`, the IC50 came out at 2.7 µM.

As for `N=C(N)NCCCn1c(C(=O)NCCc2c[nH]c3ccccc23)cc2cc(NC(=O)C3CCN(C(=N)N)CC3)ccc21`, the IC50 was found to be 3 µM.

`CC(C)C[C@@H](NC(=N)N)C(=O)Nc1ccc2c(c1)cc(C(=O)NCCc1c[nH]c3ccccc13)n2CCCNC(=N)N` had an IC50 of 2.2 µM.

Regarding `CC(C)C[C@H](NC(=N)N)C(=O)Nc1ccc2c(c1)cc(C(=O)NCCc1c[nH]c3ccccc13)n2CCCNC(=N)N`, the half-maximal inhibitory concentration (IC50) amounted to 1.2 µM.

In a further assay the test system is Human immunodeficiency virus 1. Description: Antiviral activity against HIV1 3B assessed as inhibition of virus-induced cytopathogenicity. In kind it is functional, organism-based. The note with it: Human immunodeficiency virus 1, 3B.
As to `CC(C)C[C@H](NC(=N)N)C(=O)Nc1ccc2c(c1)cc(C(=O)NCCc1c[nH]c3ccccc13)n2CCCNC(=N)N`, the EC50 is 5.4 µM.
